Several values for one entry are separate records, joined by “and”; a condition that tells them apart may be missing. Identical values can stand only once.
Tests used:
[1] = In vivo renal clearance in humans; design: species or system human; conditions: for CL renal: male, human, urine
Experimental: Four healthy male subjects were administered each dose. Table 25 below provides the results in the form of the mean renal clearance, mean total amount excreted unchanged ad Compound (1D), and mean percentage dose excreted unchanged.

[2] = system: subjects with insomnia disorder; assay: Phase 1 crossover polysomnography (PSG) study in subjects with insomnia disorder; format: in vivo, human
[3] = Change from Baseline, 10 mg oral
[4] = Compound (1D) versus placebo, 10 mg oral
[5] = Treatment Period 1 Night 1, 10 mg oral
[6] = Treatment Period 1 Night 2, 10 mg oral
[7] = Treatment Period 2 Night 1, 10 mg oral
[8] = Treatment Period 2 Night 2, 10 mg oral
[9] = Treatment Period Mean, 10 mg oral

O=C(O)c1nc2ccccc2n([C@H]2C[C@H]3CCC[C@@H](C2)N3C2CC3CCCC(C3)C2)c1=O (some centres unmarked) [Compound (1D)]
absorption from the gastrointestinal tract ([1]; 3 mg oral dose, aqueous suspension): essentially completely absorbed
Mean % Dose Excreted Unchanged ([1]; 3.0 mg single oral dose): 89%
Mean Total Amount Excreted Unchanged ([1]; 3.0 mg single oral dose): 2.66 mg
Mean % Dose Excreted Unchanged ([1]; 10 mg single oral dose): 70%
Mean Total Amount Excreted Unchanged ([1]; 10 mg single oral dose): 6.95 mg
Mean % Dose Excreted Unchanged ([1]; 30 mg single oral dose): 28%
Mean Total Amount Excreted Unchanged ([1]; 30 mg single oral dose): 8.37 mg
renal elimination mechanism ([1]; in addition to glomerular filtration): active renal tubular secretion
CL renal ([1]; 3.0 mg single oral dose): 275 mL/min
CL renal ([1]; 10 mg single oral dose): 266 mL/min
CL renal ([1]; 30 mg single oral dose): 270 mL/min
excretion in human urine ([1]; single oral doses 3, 10, 30 mg): excreted largely unchanged
Latency to Persistent Sleep (LPS) LSM (STDE) [2, 3]: −32.33 (4.580) Minutes
Latency to Persistent Sleep (LPS) Maximum [2, 3]: 8.75 min
Latency to Persistent Sleep (LPS) Mean (SD) [2, 3]: −29.918 (23.3435) Minutes
Latency to Persistent Sleep (LPS) Median [2, 3]: -27.250 min
Latency to Persistent Sleep (LPS) Minimum [2, 3]: -87.75 min
Total Sleep Time (TST) LSM (STDE) [2, 3]: 69.44 (12.870) Minutes
Total Sleep Time (TST) Maximum [2, 3]: 198.00 min
Total Sleep Time (TST) Mean (SD) [2, 3]: 69.955 (49.2950) Minutes
Total Sleep Time (TST) Median [2, 3]: 73.750 min
Total Sleep Time (TST) Minimum [2, 3]: -59.80 min
Wake After Sleep Onset (WASO) LSM (STDE) [2, 3]: −50.04 (5.990) Minutes
Wake After Sleep Onset (WASO) Maximum [2, 3]: 29.50 min
Wake After Sleep Onset (WASO) Mean (SD) [2, 3]: −50.545 (42.1544) Minutes
Wake After Sleep Onset (WASO) Median [2, 3]: -47.250 min
Wake After Sleep Onset (WASO) Minimum [2, 3]: -185.50 min
Latency to Persistent Sleep (LPS) Drug Effect Difference (LSM (STDE)) [2, 4]: −17.44 (6.292) Minutes
Total Sleep Time (TST) Drug Effect Difference (LSM (STDE)) [2, 4]: 56.69 (17.665) Minutes
Wake After Sleep Onset (WASO) Drug Effect Difference (LSM (STDE)) [2, 4]: −38.46 (8.222) Minutes
Latency to Persistent Sleep LSM Change from Baseline (STDE) ([2]; Table 4 summary, 10 mg oral): −32.3 (4.6) min.
Latency to Persistent Sleep Treatment Period Mean (SD) ([2]; Table 4 summary, 10 mg oral): 18.8 (15.6)) min.
Latency to Persistent Sleep LSM Effect Difference (STDE) ([2]; Table 4 summary, versus placebo, 10 mg oral): −17.4 (6.3) min.
Wake After Sleep Onset LSM Change from Baseline (STDE) ([2]; Table 6 summary, 10 mg oral): −50.0 (6.0) min.
Wake After Sleep Onset Treatment Period Mean (SD) ([2]; Table 6 summary, 10 mg oral): 26.1 (16.2) min.
Wake After Sleep Onset LSM Effect Difference (STDE) ([2]; Table 6 summary, versus placebo, 10 mg oral): −38.5 (8.2) min.
Total Sleep Time LSM Change from Baseline (STDE) ([2]; Table 8 summary, 10 mg oral): 69.4 (12.9) min.
Total Sleep Time Treatment Period Mean (SD) ([2]; Table 8 summary, 10 mg oral): 432.0 (35.1) min.
Total Sleep Time LSM Effect Difference (STDE) ([2]; Table 8 summary, versus placebo, 10 mg oral): 56.7 min. and 56.7 (17.7) min.
Latency to Persistent Sleep (LPS) Maximum [2, 5]: 58.0 min
Latency to Persistent Sleep (LPS) Mean (SD) [2, 5]: 25.68 (15.691) Minutes
Latency to Persistent Sleep (LPS) Median [2, 5]: 24.50 min
Latency to Persistent Sleep (LPS) Minimum [2, 5]: 6.0 min
Total Sleep Time (TST) Maximum [2, 5]: 469.0 min
Total Sleep Time (TST) Mean (SD) [2, 5]: 424.00 (32.530) Minutes
Total Sleep Time (TST) Median [2, 5]: 419.50 min
Total Sleep Time (TST) Minimum [2, 5]: 358.5 min
Wake After Sleep Onset (WASO) Maximum [2, 5]: 111.5 min
Wake After Sleep Onset (WASO) Mean (SD) [2, 5]: 35.95 (29.815) Minutes
Wake After Sleep Onset (WASO) Median [2, 5]: 29.50 min
Wake After Sleep Onset (WASO) Minimum [2, 5]: 7.5 min
Latency to Persistent Sleep (LPS) Maximum [2, 6]: 105.0 min
Latency to Persistent Sleep (LPS) Mean (SD) [2, 6]: 20.73 (29.755) Minutes
Latency to Persistent Sleep (LPS) Median [2, 6]: 15.00 min
Latency to Persistent Sleep (LPS) Minimum [2, 6]: 0.0 min
Total Sleep Time (TST) Maximum [2, 6]: 459.0 min
Total Sleep Time (TST) Mean (SD) [2, 6]: 439.82 (19.572) Minutes
Total Sleep Time (TST) Median [2, 6]: 443.00 min
Total Sleep Time (TST) Minimum [2, 6]: 387.5 min
Wake After Sleep Onset (WASO) Maximum [2, 6]: 52.0 min
Wake After Sleep Onset (WASO) Mean (SD) [2, 6]: 25.68 (12.515) Minutes
Wake After Sleep Onset (WASO) Median [2, 6]: 25.50 min
Wake After Sleep Onset (WASO) Minimum [2, 6]: 4.0 min
Latency to Persistent Sleep (LPS) Maximum [2, 7]: 46.0 min
Latency to Persistent Sleep (LPS) Mean (SD) [2, 7]: 12.75 (14.425) Minutes
Latency to Persistent Sleep (LPS) Median [2, 7]: 9.00 min
Latency to Persistent Sleep (LPS) Minimum [2, 7]: 0.0 min
Total Sleep Time (TST) Maximum [2, 7]: 458.5 min
Total Sleep Time (TST) Mean (SD) [2, 7]: 416.88 (101.558) Minutes
Total Sleep Time (TST) Median [2, 7]: 453.00 min
Total Sleep Time (TST) Minimum [2, 7]: 166.0 min
Wake After Sleep Onset (WASO) Maximum [2, 7]: 22.5 min
Wake After Sleep Onset (WASO) Mean (SD) [2, 7]: 15.63 (4.299) Minutes
Wake After Sleep Onset (WASO) Median [2, 7]: 15.75 min
Wake After Sleep Onset (WASO) Minimum [2, 7]: 9.5 min
Latency to Persistent Sleep (LPS) Maximum [2, 8]: 29.5 min
Latency to Persistent Sleep (LPS) Mean (SD) [2, 8]: 12.50 (9.350) Minutes
Latency to Persistent Sleep (LPS) Median [2, 8]: 11.50 min
Latency to Persistent Sleep (LPS) Minimum [2, 8]: 0.5 min
Total Sleep Time (TST) Maximum [2, 8]: 459.5 min
Total Sleep Time (TST) Mean (SD) [2, 8]: 447.50 (8.594) Minutes
Total Sleep Time (TST) Median [2, 8]: 450.25 min
Total Sleep Time (TST) Minimum [2, 8]: 436.0 min
Wake After Sleep Onset (WASO) Maximum [2, 8]: 38.5 min
Wake After Sleep Onset (WASO) Mean (SD) [2, 8]: 23.44 (8.946) Minutes
Wake After Sleep Onset (WASO) Median [2, 8]: 22.75 min
Wake After Sleep Onset (WASO) Minimum [2, 8]: 12.5 min
Latency to Persistent Sleep (LPS) LSM (STDE) [2, 9]: 18.14 (4.579) Minutes
Latency to Persistent Sleep (LPS) Maximum [2, 9]: 70.25 min
Latency to Persistent Sleep (LPS) Mean (SD) [2, 9]: 18.750 (15.6310) Minutes
Latency to Persistent Sleep (LPS) Median [2, 9]: 15.000 min
Latency to Persistent Sleep (LPS) Minimum [2, 9]: 2.00 min
Total Sleep Time (TST) LSM (STDE) [2, 9]: 431.09 (12.869) Minutes
Total Sleep Time (TST) Maximum [2, 9]: 464.00 min
Total Sleep Time (TST) Mean (SD) [2, 9]: 432.026 (35.1088) Minutes
Total Sleep Time (TST) Median [2, 9]: 443.500 min
Total Sleep Time (TST) Minimum [2, 9]: 309.00 min
Wake After Sleep Onset (WASO) LSM (STDE) [2, 9]: 25.28 (5.990) Minutes
Wake After Sleep Onset (WASO) Maximum [2, 9]: 51.75 min
Wake After Sleep Onset (WASO) Mean (SD) [2, 9]: 26.066 (16.2181) Minutes
Wake After Sleep Onset (WASO) Median [2, 9]: 22.250 min
Wake After Sleep Onset (WASO) Minimum [2, 9]: 11.00 min
Latency to Persistent Sleep LSM decrease effect ([2]; treatment group versus placebo): 17.4 min
Wake After Sleep Onset LSM decrease effect ([2]; treatment group versus placebo): 38.5 min
